pIC50: −log10 of the molar value.
What was measured:
[1] = biological target: T1, 5-hydroxytryptamine receptor 1A (Rattus norvegicus, UniProt P19327); assay: Binding affinity towards 5-hydroxytryptamine 1A receptor using receptor binding assay
T1 sequence (P19327 whole entry): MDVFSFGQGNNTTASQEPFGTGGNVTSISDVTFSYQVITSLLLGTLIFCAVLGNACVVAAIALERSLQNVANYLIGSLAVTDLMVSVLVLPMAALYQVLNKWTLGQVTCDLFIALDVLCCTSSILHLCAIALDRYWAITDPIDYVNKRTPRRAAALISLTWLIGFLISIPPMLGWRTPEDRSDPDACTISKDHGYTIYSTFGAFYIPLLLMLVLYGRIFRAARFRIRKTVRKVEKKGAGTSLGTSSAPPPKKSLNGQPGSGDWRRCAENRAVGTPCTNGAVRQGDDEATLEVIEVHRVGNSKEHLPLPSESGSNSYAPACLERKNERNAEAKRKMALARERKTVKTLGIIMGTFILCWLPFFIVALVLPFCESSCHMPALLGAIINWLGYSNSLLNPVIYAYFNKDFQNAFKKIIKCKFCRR

[2] = biological target: T2, Adrenergic receptor alpha-2 (Rattus norvegicus, UniProt P22086+P19328+P22909); assay: Binding affinity towards Alpha-2 adrenergic receptor; format: protein assay
T2 sequence (P22086 whole entry): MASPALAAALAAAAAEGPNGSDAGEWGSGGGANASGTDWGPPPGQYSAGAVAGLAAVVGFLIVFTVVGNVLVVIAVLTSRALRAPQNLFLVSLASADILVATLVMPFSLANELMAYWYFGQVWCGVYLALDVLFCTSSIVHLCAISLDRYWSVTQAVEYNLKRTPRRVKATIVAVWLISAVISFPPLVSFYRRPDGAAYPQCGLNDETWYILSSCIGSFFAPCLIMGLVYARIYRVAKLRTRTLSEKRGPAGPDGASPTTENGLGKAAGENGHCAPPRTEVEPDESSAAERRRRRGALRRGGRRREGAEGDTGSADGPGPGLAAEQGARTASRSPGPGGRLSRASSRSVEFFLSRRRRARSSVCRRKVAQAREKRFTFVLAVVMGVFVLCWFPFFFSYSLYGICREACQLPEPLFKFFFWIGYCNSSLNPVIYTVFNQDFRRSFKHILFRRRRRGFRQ
T2 sequence (P19328 whole entry): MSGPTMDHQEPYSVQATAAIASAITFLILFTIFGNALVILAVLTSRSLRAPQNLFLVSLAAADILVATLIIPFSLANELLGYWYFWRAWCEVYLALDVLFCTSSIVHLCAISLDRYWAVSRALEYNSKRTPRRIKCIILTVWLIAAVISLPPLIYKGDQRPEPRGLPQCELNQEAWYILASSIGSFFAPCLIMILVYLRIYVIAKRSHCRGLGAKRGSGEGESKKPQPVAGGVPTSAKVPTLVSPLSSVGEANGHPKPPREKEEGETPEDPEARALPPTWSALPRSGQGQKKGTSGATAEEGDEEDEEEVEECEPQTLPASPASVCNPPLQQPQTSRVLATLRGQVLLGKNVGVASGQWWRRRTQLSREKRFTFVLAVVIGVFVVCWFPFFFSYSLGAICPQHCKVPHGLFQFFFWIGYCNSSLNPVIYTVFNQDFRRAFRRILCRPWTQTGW
T2 sequence (P22909 whole entry): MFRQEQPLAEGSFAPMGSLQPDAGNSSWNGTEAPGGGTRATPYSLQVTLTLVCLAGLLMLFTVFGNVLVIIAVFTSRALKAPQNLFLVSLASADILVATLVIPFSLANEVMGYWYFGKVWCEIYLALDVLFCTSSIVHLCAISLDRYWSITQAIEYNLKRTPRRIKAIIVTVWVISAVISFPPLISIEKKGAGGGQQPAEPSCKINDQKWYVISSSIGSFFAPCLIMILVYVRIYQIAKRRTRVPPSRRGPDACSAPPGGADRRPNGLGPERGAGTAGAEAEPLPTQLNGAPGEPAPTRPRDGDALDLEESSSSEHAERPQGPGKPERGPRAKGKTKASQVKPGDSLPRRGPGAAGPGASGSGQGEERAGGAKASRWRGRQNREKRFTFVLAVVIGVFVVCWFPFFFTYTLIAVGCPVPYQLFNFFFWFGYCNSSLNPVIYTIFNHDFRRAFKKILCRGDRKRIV

[3] = biological target: T3, Adrenergic receptor alpha-1 (Rattus norvegicus, UniProt P15823+P23944+P43140); assay: Binding affinity towards Alpha-1 adrenergic receptor; format: protein assay
T3 sequence (P15823 whole entry): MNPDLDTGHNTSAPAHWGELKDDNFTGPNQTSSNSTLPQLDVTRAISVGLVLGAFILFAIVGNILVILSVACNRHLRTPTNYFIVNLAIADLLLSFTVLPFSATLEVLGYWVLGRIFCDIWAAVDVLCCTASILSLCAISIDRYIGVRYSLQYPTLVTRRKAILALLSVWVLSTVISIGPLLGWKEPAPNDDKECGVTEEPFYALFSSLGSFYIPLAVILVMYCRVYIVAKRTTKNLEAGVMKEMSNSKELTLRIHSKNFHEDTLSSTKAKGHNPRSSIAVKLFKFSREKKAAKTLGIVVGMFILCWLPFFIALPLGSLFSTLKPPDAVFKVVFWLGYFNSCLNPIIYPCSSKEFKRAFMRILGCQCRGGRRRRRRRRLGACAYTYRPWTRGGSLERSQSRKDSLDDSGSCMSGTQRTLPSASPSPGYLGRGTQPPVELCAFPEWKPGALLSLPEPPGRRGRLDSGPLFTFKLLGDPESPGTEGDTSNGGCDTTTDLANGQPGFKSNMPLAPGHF
T3 sequence (P23944 whole entry): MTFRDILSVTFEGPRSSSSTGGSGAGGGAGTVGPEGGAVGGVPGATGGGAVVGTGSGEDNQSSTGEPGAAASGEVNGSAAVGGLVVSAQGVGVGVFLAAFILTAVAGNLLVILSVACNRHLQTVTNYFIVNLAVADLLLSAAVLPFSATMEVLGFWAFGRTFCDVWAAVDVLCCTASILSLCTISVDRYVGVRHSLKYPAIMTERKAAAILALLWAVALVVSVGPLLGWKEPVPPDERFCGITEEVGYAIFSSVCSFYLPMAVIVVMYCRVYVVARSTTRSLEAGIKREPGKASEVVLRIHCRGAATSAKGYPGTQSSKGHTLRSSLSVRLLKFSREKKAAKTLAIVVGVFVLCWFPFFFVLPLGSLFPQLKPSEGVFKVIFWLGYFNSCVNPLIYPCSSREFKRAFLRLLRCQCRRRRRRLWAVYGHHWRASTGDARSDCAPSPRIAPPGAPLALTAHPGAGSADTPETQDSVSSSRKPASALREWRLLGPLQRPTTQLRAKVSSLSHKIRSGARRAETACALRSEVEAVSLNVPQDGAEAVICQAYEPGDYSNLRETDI
T3 sequence (P43140 whole entry): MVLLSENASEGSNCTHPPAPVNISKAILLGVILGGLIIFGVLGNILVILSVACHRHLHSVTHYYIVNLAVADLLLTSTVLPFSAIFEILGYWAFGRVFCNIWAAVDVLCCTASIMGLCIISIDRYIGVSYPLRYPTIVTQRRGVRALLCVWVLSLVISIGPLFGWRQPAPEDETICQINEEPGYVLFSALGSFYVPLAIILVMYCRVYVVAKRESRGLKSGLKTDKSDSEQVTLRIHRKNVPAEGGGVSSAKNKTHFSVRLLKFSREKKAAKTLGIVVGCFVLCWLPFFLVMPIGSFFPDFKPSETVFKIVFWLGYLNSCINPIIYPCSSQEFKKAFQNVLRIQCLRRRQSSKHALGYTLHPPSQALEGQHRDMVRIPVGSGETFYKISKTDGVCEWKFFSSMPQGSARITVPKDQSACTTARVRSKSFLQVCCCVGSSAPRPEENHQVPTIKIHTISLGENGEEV

Compound | pIC50 [1] | IC50 [2] [nM] | IC50 [3] [nM]
COc1ccccc1OCC(O)CN1CCN(CCC(=O)N2CCCOc3c2cnn(C)c3=O)CC1 (stereo unspecified) | < 6.00 | 47000 | > 10000
COc1ccccc1N1CCN(CC(=O)N2CCCOc3c2cnn(C)c3=O)CC1 | < 6.00 | – | –
COc1ccccc1OCCNC(C)C(=O)N1CCCSc2c1cnn(C)c2=O (stereo unspecified) | < 6.00 | – | –
COc1ccccc1OCCNC(C)C(=O)N1CCCOc2c1cnn(C)c2=O (stereo unspecified) | < 6.00 | – | –
Cn1ncc2c(c1=O)OCCCN2C(=O)CNCCOc1ccccc1 | 6.64 | – | –
COc1ccccc1OCCN(CCC(=O)N1CCCOc2c1cnn(C)c2=O)Cc1ccccc1 | 6.00 | – | –
Cn1ncc2c(c1=O)SCCCN2C(=O)CCNCCOc1ccccc1 | 6.82 | – | –
CCSc1c(N(C)C(=O)CCNCCOc2ccccc2OC)cnn(C)c1=O | 7.49 | – | –
COc1ccccc1OCCNCC(=O)N1CCCOc2c1cnn(C)c2=O | 6.79 | 21000 | 12500
COc1ccccc1OCC(O)CN1CCN(CC(=O)N2CCCOc3c2cnn(C)c3=O)CC1 (stereo unspecified) | < 6.00 | – | –
COc1ccccc1OCCN(CCC(=O)N1CCCSc2c1cnn(C)c2=O)Cc1ccccc1 | < 6.00 | – | –
COc1ccccc1OCCN(C)CCCN1CCCSc2c1cnn(C)c2=O | < 6.00 | – | –
COc1cccc(OCC(O)CN2CCN(CCC(=O)N3CCCSc4c3cnn(C)c4=O)CC2)c1 (stereo unspecified) | 6.93 | – | –
COc1ccccc1OCCNCCCC(=O)N1CCCSc2c1cnn(C)c2=O | 8.04 | 860 | 930

Further lines, results first:

pIC50 [1] | IC50 [2] [nM] | IC50 [3] [nM] | Compound
7.75 | 3900 | 690 | COc1ccccc1OCCNCCCC(=O)N1CCCOc2c1cnn(C)c2=O
6.87 | 9500 | 16100 | COc1ccccc1OCCN(C)CCC(=O)N1CCCOc2c1cnn(C)c2=O
7.94 | 270 | 1700 | COc1ccccc1OCCNCCC(=O)N1CCCSc2c1cnn(C)c2=O
6.52 | 4600 | > 10000 | Cn1ncc2c(c1=O)OCCCN2C(=O)CNCC1COc2ccccc2O1 (stereo unspecified)
7.43 | 3100 | > 10000 | COc1ccccc1OCCNCC(=O)N1CCCSc2c1cnn(C)c2=O
6.74 | – | – | Cn1ncc2c(c1=O)SCCCN2C(=O)CCNCCOc1cccc(Cl)c1
6.51 | – | – | Cn1ncc2c(c1=O)OCCCN2C(=O)CCNCCOc1cccc(Cl)c1
7.35 | 2330 | 19000 | Cn1ncc2c(c1=O)SCCCN2C(=O)CNCC1COc2ccccc2O1 (stereo unspecified)
7.71 | 1800 | 1700 | COc1ccccc1OCCNCCC(=O)N1CCCOc2c1cnn(C)c2=O
6.28 | 540 | 8900 | Cn1ncc2c(c1=O)OCCCN2C(=O)CCNCCOc1ccccc1
